Consider 17 compounds from patent US10246456B2, “IRAK4 inhibiting agents” (BIOGEN MA INC., priority 2014, dated 2019).

pIC50: −log10 of the molar value. “And” between values parts separate entries of the source, which are not always exact repeats. Equal values may be shown once.

A word on the pIC50: it is −log10 of the IC50, conventionally taken in molar units.

For the assay, the target named is IRAK4 (Homo sapiens (Human), UniProt Q9NWZ3). In words: IRAK-4 AlphaScreen biochemical kinase assay. The note with it: 1 nM IRAK4, 1 mM ATP, 3.5 h at RT. An outline of the steps:
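AlphaScreen read-out: streptavidin beads bind the biotinylated peptide and protein A beads bind the anti-phosphothreonine antibody, so energy transfer reports phosphorylation of the peptide. The kinase is human IRAK-4.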
For orientation: In Alpha technology, singlet oxygen from a donor bead excites a nearby acceptor bead.

Chain of IRAK4 (Q9NWZ3 whole entry, species assumed): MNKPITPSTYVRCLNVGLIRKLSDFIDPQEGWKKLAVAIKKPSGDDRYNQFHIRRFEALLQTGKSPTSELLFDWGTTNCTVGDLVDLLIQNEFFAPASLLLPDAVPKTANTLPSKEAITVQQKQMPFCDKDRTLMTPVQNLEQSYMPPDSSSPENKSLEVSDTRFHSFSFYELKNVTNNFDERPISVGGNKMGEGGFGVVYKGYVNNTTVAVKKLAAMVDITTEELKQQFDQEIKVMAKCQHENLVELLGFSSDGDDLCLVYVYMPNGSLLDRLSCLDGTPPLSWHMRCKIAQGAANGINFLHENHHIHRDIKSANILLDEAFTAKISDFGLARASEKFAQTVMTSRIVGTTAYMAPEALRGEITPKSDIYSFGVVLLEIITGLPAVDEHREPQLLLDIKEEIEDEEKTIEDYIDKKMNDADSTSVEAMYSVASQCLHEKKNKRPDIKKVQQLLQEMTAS

Turning to `CC(N)c1cccc(-c2ccc3cnn(-c4cccc(C(N)=O)n4)c3c2)n1` (centres unmarked) [Example 126, 6-(6-(6-(1-aminoethyl)pyridin-2-yl)-1H-indazol-1-yl)picolinamide], the pIC50 is > 7.00.

For the compound `CCC(N)c1cccc(-c2ccc3cnn(-c4cccc(C(F)(F)F)n4)c3c2)n1` (centres unmarked) [Example 127, 1-(6-(1-(6-(trifluoromethyl)pyridin-2-yl)-1H-indazol-6-yl)pyridin-2-yl)propan-1-amine], the pIC50 is > 7.00.

For `NC(c1cccc(-c2ccc3cnn(-c4cccc(C(F)(F)F)n4)c3c2)n1)C1CC1` (centres unmarked) [Example 128, cyclopropyl(6-(1-(6-(trifluoromethyl)pyridin-2-yl)-1H-indazol-6-yl)pyridin-2-yl)methanamine], the pIC50 was > 7.00.

As for `CC(C)(N)c1cccc(-c2ccc3cnn(-c4cccc(C(F)(F)F)n4)c3c2)n1` [Example 129, 2-(6-(1-(6-(trifluoromethyl)pyridin-2-yl)-1H-indazol-6-yl)pyridin-2-yl)propan-2-amine], the pIC50 was > 7.00.

Consider `Cc1cccc(-n2ncc3ccc(-c4cccc(C(C)O)n4)cc32)n1` (centres unmarked) [Example 130, 1-(6-(1-(6-methylpyridin-2-yl)-1H-indazol-6-yl)pyridin-2-yl)ethanol], for which the pIC50 was 6.00 to 7.00.

As to `Cc1cccc(-n2ncc3ccc(-c4cccc(C(N)C5CC5)n4)cc32)n1` (centres unmarked) [Example 131, cyclopropyl(6-(1-(6-methylpyridin-2-yl)-1H-indazol-6-yl)pyridin-2-yl)methanamine], the pIC50 was > 7.00.

Turning to `CCCC(N)c1cccc(-c2ccc3cnn(-c4cccc(C)n4)c3c2)n1` (centres unmarked) [Example 132, 1-(6-(1-(6-methylpyridin-2-yl)-1H-indazol-6-yl)pyridin-2-yl)butan-1-amine], the pIC50 was > 7.00.

The compound `Cc1csc(-n2ncc3ccc(-c4cccc(C(C)N)n4)cc32)n1` (centres unmarked) [Example 134, 1-(6-(1-(4-methylthiazol-2-yl)-1H-indazol-6-yl)pyridin-2-yl)ethanamine] had a negative logarithm of the IC50 (pIC50) of 6.00 to 7.00.

With `Cc1cnc(-n2ncc3ccc(-c4cccc(C(C)N)n4)cc32)s1` (centres unmarked) [Example 135, 1-(6-(1-(5-methylthiazol-2-yl)-1H-indazol-6-yl)pyridin-2-yl)ethanamine], the pIC50 was 6.00 to 7.00.

Compound `Cc1nc(-n2ncc3ccc(-c4cccc(C(C)N)n4)cc32)cs1` (centres unmarked) [Example 136, 1-(6-(1-(2-methylthiazol-4-yl)-1H-indazol-6-yl)pyridin-2-yl)ethanamine] showed a pIC50 of 6.00 to 7.00.

Consider `CC(N)c1cccc(-c2ccc3cnn(-c4ccn(C)n4)c3c2)n1` (centres unmarked) [Example 137, 1-(6-(1-(1-methyl-1H-pyrazol-3-yl)-1H-indazol-6-yl)pyridin-2-yl)ethanamine], for which the pIC50 was 6.00 to 7.00.

For the compound `CC(N)c1cccc(-c2ccc3cnn(-c4cn(C)cn4)c3c2)n1` (centres unmarked) [Example 138, 1-(6-(1-(1-methyl-1H-imidazol-4-yl)-1H-indazol-6-yl)pyridin-2-yl)ethanamine], the pIC50 was 6.00 to 7.00 and 5.00 to 6.00.

Compound `Cc1cccc(-n2ncc3ccc(-c4nc(CN)cs4)cc32)n1` [Example 139, (2-(1-(6-methylpyridin-2-yl)-1H-indazol-6-yl)thiazol-4-yl)methanamine] had a negative logarithm of the IC50 (pIC50) of 6.00 to 7.00.

`Cc1cccc(-n2ncc3ccc(-c4ncc(CN)s4)cc32)n1` [Example 140, (2-(1-(6-methylpyridin-2-yl)-1H-indazol-6-yl)thiazol-5-yl)methanamine] gave a pIC50 of 6.00 to 7.00.

Regarding `Cc1cccc(-n2ncc3ccc(-c4cccc([C@@H](C)N)n4)cc32)n1` [Example 141, (R)-1-(6-(1-(6-methylpyridin-2-yl)-1H-indazol-6-yl)pyridin-2-yl)ethanamine], the pIC50 is > 7.00.

Regarding `Cc1cccc(-n2ncc3ccc(-c4cccc([C@H](C)N)n4)cc32)n1` [Example 142, (S)-1-(6-(1-(6-methylpyridin-2-yl)-1H-indazol-6-yl)pyridin-2-yl)ethanamine], the pIC50 was > 7.00.

For the compound `C[C@H](N)c1cccc(-c2ccc3cnn(-c4cccc(CO)n4)c3c2)n1` [Example 143, (S)-(6-(6-(6-(1-aminoethyl)pyridin-2-yl)-1H-indazol-1-yl)pyridin-2-yl)methanol], the pIC50 is > 7.00.
